Results from patent publication US20240041042A1, “1-(PYRIDYL)-5-AZINYLPYRAZOLE DERIVATIVES, AND THEIR USE FOR CONTROL OF UNDESIRED PLANT GROWTH” (Bayer Aktiengesellschaft, priority 2020, published 2024).
Read-outs that look alike come from different tables or passages of the source.

Tests used:
Assay type in all cases: in vivo
[1] = tested on: Polygonum convolvulus (POLCO); assay: Pre-emergence herbicidal action against POLCO; details: dosage 320 g/ha
Method in brief: (§1)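 Pre-emergence soil-surface spray of compound, formulated as wettable powder or emulsion concentrate, in aqueous suspension or emulsion with 0.5% additive (600 l/ha; rate 320 g/ha or less). Activity rated visually after roughly 3 weeks in the greenhouse as a percentage of untreated controls, 0% meaning no difference.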

Lolium rigidum (LOLRI) [2] = assay: Pre-emergence herbicidal action against LOLRI; details: dosage 320 g/ha
Method in brief: as §1

Avena fatua (AVEFA) [3] = assay: Post-emergence herbicidal action against AVEFA; details: visual rating about 3 weeks after treatment
Method in brief: (§2)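 Post-emergence greenhouse spray, one-leaf stage, 600 l/ha water plus 0.5% additive; WP or EC formulations; application rates 320 g/ha or lower. Visual % damage vs untreated controls at ~3 weeks.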

[4] = tested on: Matricaria inodora (MATIN); assay: Pre-emergence herbicidal action against MATIN
Method in brief: as §1

Setaria viridis (SETVI) [5] = assay: Pre-emergence herbicidal action against SETVI; details: dosage 320 g/ha
Method in brief: as §1

[6] = tested on: Amaranthus retroflexus (AMARE); assay: Pre-emergence herbicidal action against AMARE; details: visual scoring after about 3 weeks vs untreated controls
Method in brief: as §1

Oryza sativa (ORYSA) [7] = details: crop plant compatibility
Method in brief: (§3)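 Foliar application at the one-leaf stage: WP/EC formulation, 0.5% additive, 600 l/ha water. Greenhouse-grown in sandy loam. Endpoint is visual % injury relative to untreated controls at about 3 weeks.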

[8] = tested on: Verconica persica (VERPE); assay: Pre-emergence herbicidal action against VERPE; details: dosage 320 g/ha
Method in brief: as §1

Brassica napus (BRSNW) = details: crop plant compatibility, in comparison to untreated controls
Method in brief: (§4)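 Scoring: visual, % of untreated control, about 3 weeks after a pre-emergence application to the soil surface. Application used WP or EC formulations diluted in water with 0.5% additive at 600 l/ha; dosage levels are marked by suffixes a, b and c.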

Glycine max (GLXMA) = details: pre-emergence, crop plant compatibility, in comparison to untreated controls
Method in brief: as §4

[9] = tested on: Triticum aestivum (TRZAS); details: pre-emergence, crop plant compatibility, in comparison to untreated controls
Method in brief: as §4

[10] = tested on: Polygonum convolvulus (POLCO); assay: Post-emergence herbicidal action against POLCO; details: dosage 320 g/ha
Method in brief: as §2

[11] = tested on: Amaranthus retroflexus (AMARE); assay: Post-emergence herbicidal action against AMARE
Method in brief: as §2

Viola tricolor (VIOTR) [12] = assay: Pre-emergence herbicidal action against VIOTR; details: 320 g/ha, Viola tricolor
Method in brief: as §1

[13] = tested on: Echinochloa crus-galli (ECHCG); assay: Post-emergence herbicidal action against ECHCG
Method in brief: as §2

[14] = tested on: Echinochloa crus-galli (ECHCG); assay: Pre-emergence herbicidal action against ECHCG; details: dosage 320 g/ha
Method in brief: as §1

Setaria viridis (SETVI) [15] = assay: Post-emergence herbicidal action against SETVI
Method in brief: as §2

[16] = tested on: Alopecurus myosuroides (ALOMY); assay: Pre-emergence herbicidal action against ALOMY; details: 320 g/ha; scored visually after about 3 weeks; 100% = plants have died
Method in brief: as §1

[17] = tested on: Pharbitis purpurea (PHBPU); assay: Post-emergence herbicidal action against PHBPU
Method in brief: as §2

[18] = tested on: Abutilon theophrasti (ABUTH); assay: Post-emergence herbicidal action against ABUTH; details: 320 g/ha, visual rating about 3 weeks after treatment vs untreated controls (100% = plants have died, 0% = like control plants)
Method in brief: as §2

[19] = tested on: Triticum aestivum (TRZAS); details: crop plant compatibility, effect vs untreated controls
Method in brief: as §3

Oryza sativa (ORYSA) [20] = details: pre-emergence, crop plant compatibility, in comparison to untreated controls
Method in brief: as §4

[21] = tested on: Alopecurus myosuroides (ALOMY); assay: Post-emergence herbicidal action against ALOMY; details: visual rating about 3 weeks after treatment vs untreated controls (100% = plants have died, 0% = like control plants)
Method in brief: as §2

[22] = tested on: Matricaria inodora (MATIN); assay: Post-emergence herbicidal action against MATIN; details: dosage 320 g/ha
Method in brief: as §2

Viola tricolor (VIOTR) [23] = assay: Post-emergence herbicidal action against VIOTR
Method in brief: as §2

Lolium rigidum (LOLRI) [24] = assay: Post-emergence herbicidal action against LOLRI; details: dosage 320 g/ha
Method in brief: as §2

Avena fatua (AVEFA) [25] = assay: Pre-emergence herbicidal action against AVEFA; details: 320 g/ha, visual scoring after about 3 weeks vs untreated controls
Method in brief: as §1

Zea mays (ZEAMX) [26] = details: for Post-emergence action against ZEAMX in %: crop plant compatibility, effect vs untreated controls
Method in brief: as §3

Zea mays (ZEAMX) [27] = details: pre-emergence, crop plant compatibility, in comparison to untreated controls
Method in brief: as §4

[28] = tested on: Verconica persica (VERPE); assay: Post-emergence herbicidal action against VERPE; details: 320 g/ha, VERPE
Method in brief: as §2

[29] = 80 g/ha, effect in comparison to untreated controls
[30] = 320 g/ha, effect in comparison to untreated controls
[31] = 320 g/ha, visual rating about 3 weeks after treatment
[32] = 20 g/ha, effect vs untreated controls
[33] = 80 g/ha, visual rating about 3 weeks after treatment vs untreated controls (100% = plants have died, 0% = like control plants)

Structure (SMILES)	Pre-emergence action against LOLRI in % (Lolium rigidum (LOLRI) [2]) [%]	Post-emergence action against AVEFA in % (Avena fatua (AVEFA) [3]; 320 g/ha) [%]	Pre-emergence action against SETVI in % (Setaria viridis (SETVI) [5]) [%]	Pre-emergence action against AMARE in % ([6]; 320 g/ha) [%]	Post-emergence action against ORYSA in % (Oryza sativa (ORYSA) [7]; [29]) [%]	Post-emergence action against ORYSA in % (Oryza sativa (ORYSA) [7]; [30]) [%]	Pre-emergence action against BRSNW in % (Brassica napus (BRSNW); 80 g/ha) [%]	Pre-emergence action against GLXMA in % (Glycine max (GLXMA); 80 g/ha) [%]	Pre-emergence action against TRZAS in % ([9]; 80 g/ha) [%]	Post-emergence action against AMARE in % [11, 31] [%]	Pre-emergence action against VIOTR in % (Viola tricolor (VIOTR) [12]) [%]	Post-emergence action against SETVI in % (Setaria viridis (SETVI) [15]; dosage 320 g/ha) [%]	Pre-emergence action against ALOMY [16] [%]	Post-emergence action against PHBPU in % ([17]; dosage 320 g/ha) [%]	Post-emergence action against TRZAS in % ([19]; 80 g/ha) [%]	Pre-emergence action against ORYSA in % (Oryza sativa (ORYSA) [20]; 80 g/ha) [%]	Post-emergence action against ZEAMX in % (Zea mays (ZEAMX) [26]; 80 g/ha) [%]	Pre-emergence action against ZEAMX in % (Zea mays (ZEAMX) [27]; 80 g/ha) [%]	Pre-emergence action against ORYSA in % (Oryza sativa (ORYSA) [20]; 320 g/ha) [%]	Pre-emergence action against ZEAMX in % (Zea mays (ZEAMX) [27]; 320 g/ha) [%]	further results
COC(=O)CNC(=O)CSc1nn(-c2ccccn2)c(-c2cncnc2)c1Br [Example I-65]	90	80	90	90	0	0	20	20	20	80	100	80	80								Pre-emergence action against POLCO in % [1]: 90%; Pre-emergence action against MATIN in % ([4]; dosage 80 g/ha): 80%; Pre-emergence action against MATIN in % ([4]; dosage 320 g/ha): 90%; Pre-emergence action against VERPE in % [8]: 80%; Post-emergence action against POLCO in % [10]: 80%; Post-emergence action against ECHCG in % ([13]; dosage 80 g/ha): 80%; Post-emergence action against ECHCG in % ([13]; dosage 320 g/ha): 80%; Pre-emergence action against ECHCG in % [14]: 90%
O=C(O)CSc1nn(-c2ccccn2)c(-c2ccc(F)nc2)c1Br [Example I-69]	80	100	100	90	0	10	20		0	80	90	80		80	0	0					Post-emergence action against AVEFA in % (Avena fatua (AVEFA) [3]; 80 g/ha): 80%; Pre-emergence action against MATIN in % ([4]; dosage 320 g/ha): 90%; Post-emergence action against PHBPU in % ([17]; dosage 80 g/ha): 80%; Post-emergence action against ABUTH in % [18]: 80%; Pre-emergence action against AMARE in % ([6]; 80 g/ha): 80%; Pre-emergence action against GLXMA in % (Glycine max (GLXMA); 320 g/ha): 20%; Post-emergence action against ALOMY in % ([21]; 320 g/ha): 90%; Post-emergence action against MATIN in % [22]: 80%; Post-emergence action against VIOTR in % (Viola tricolor (VIOTR) [23]; 80 g/ha): 80%; Post-emergence action against VIOTR in % (Viola tricolor (VIOTR) [23]; 320 g/ha): 80%; Post-emergence action against LOLRI in % (Lolium rigidum (LOLRI) [24]): 80%; Pre-emergence action against ECHCG in % [14]: 90%; Post-emergence action against SETVI in % (Setaria viridis (SETVI) [15]; dosage 80 g/ha): 80%; Pre-emergence action against AVEFA in % (Avena fatua (AVEFA) [25]): 80%
COC(=O)CCOC(=O)COc1nn(-c2ccccn2)c(-c2cncc(F)c2)c1C1CC1 [Example I-71]	90		100		20		0	20	10				90			10	10	10			Post-emergence action against ORYSA in % (Oryza sativa (ORYSA) [7]; [32]): 10%; Post-emergence action against TRZAS in % ([19]; 20 g/ha): 10%; Post-emergence action against ZEAMX in % (crop plant compatibility) (Zea mays (ZEAMX) [26]; 20 g/ha, ZEAMX, effect in comparison to untreated controls): 0%; Post-emergence action against ALOMY in % ([21]; 80 g/ha): 90%; Post-emergence action against AMARE in % [11, 33]: 90%
O=C(O)COc1nn(-c2ccccn2)c(-c2cncc(F)c2)c1C1CC1 [Example I-72]	100		90	90	20		10	0	10		90		100			0		0	20	0	Post-emergence action against ORYSA in % (Oryza sativa (ORYSA) [7]; [32]): 10%; Post-emergence action against TRZAS in % ([19]; 20 g/ha): 10%; Post-emergence action against ALOMY in % ([21]; 80 g/ha): 90%; Post-emergence action against AMARE in % [11, 33]: 80%
COC(=O)COc1nn(-c2ncccc2OC)c(-c2ccc(F)nc2)c1Cl [Example I-346]					0	0	0	0	0		80			90	10		0	0	0	0	Post-emergence action against ZEAMX in % (Zea mays (ZEAMX) [26]; 320 g/ha): 0%; Pre-emergence action against BRSNW in % (Brassica napus (BRSNW); 320 g/ha): 20%; Pre-emergence action against GLXMA in % (Glycine max (GLXMA); 320 g/ha): 20%
CCOC(=O)COc1nn(-c2ncccc2OC)c(-c2ccc(F)nc2)c1I [Example I-386]					0	0	0	0	20							0	0	0	20	0	Post-emergence action against ZEAMX in % (Zea mays (ZEAMX) [26]; 320 g/ha): 0%; Pre-emergence action against BRSNW in % (Brassica napus (BRSNW); 320 g/ha): 0%; Pre-emergence action against GLXMA in % (Glycine max (GLXMA); 320 g/ha): 0%
O=C(O)COc1nn(-c2ccnc(Cl)c2)c(-c2ccc(F)nc2)c1Br [III-23]	100	80	100	90	0	20	0	0	0	90		100	90	80	0	0	0	0		0	Post-emergence action against VERPE in % [28]: 90%; Post-emergence action against ABUTH in % [18]: 80%; Pre-emergence action against BRSNW in % (Brassica napus (BRSNW); 320 g/ha): 0%; Post-emergence action against ALOMY in % ([21]; 320 g/ha): 100%; Post-emergence action against AMARE in % [11, 33]: 90%; Post-emergence action against VIOTR in % (Viola tricolor (VIOTR) [23]; 320 g/ha): 90%; Post-emergence action against SETVI in % (Setaria viridis (SETVI) [15]; dosage 80 g/ha): 80%
O=C(O)CNC(=O)COc1nn(-c2ccnc(F)c2)c(-c2ccc(F)nc2)c1Br [III-26]					10	20	0	0	0						20	0	20	0	0	0	Pre-emergence action against TRZAS in % ([9]; 320 g/ha): 20%
